# According to patent publication US10562850B2, “Human plasma kallikrein inhibitors” (priority 2015, dated 2020):
# Target: human plasma kallikrein (Homo sapiens (Human), UniProt P03952)
# Assay: Plasma Kallikrein Activity Assay (chromogenic substrate S2302)
# Format: biochemical
# Conditions: 2 nM kallikrein, 80 μM S2302, 30° C., pH 7.8; Cheng-Prusoff
# Experimental: Plasma Kallikrein Activity Assay.
# The effect of compounds of the invention on human plasma kallikrein activity was determined using the chromogenic substrates (DiaPharma Group, Inc., West Chester, Ohio, USA). In these experiments, 2 nM kallikrein (Enzyme Research Laboratories, South Bend, Ind., USA) was incubated with 80 μM S2302 (H-D-Pro-Phe-Arg-p-nitroaniline) in the absence or presence of increasing concentrations of compounds of the invention in a final volume of 200 μL Tris-HCl buffer (200 mM NaCl; 2.5 mM CaCl2; 50 mM Tris-HCl, pH 7.8).
# After incubation at 30° C., the activity of kallikrein was measured as a change in absorbance at OD 405 nm using BioTek PowerWave X340 Microplate Reader (Winooski, Vt., USA). Data were analyzed using SigmaPlot software (Systat Software, Inc., San Jose, Calif., USA) (Four Parameter Logistic Curve). Ki values for the inhibitors were determined using the Cheng-Prusoff equation (Biochem. Pharmacol. 1973, 22, 3099).
# human plasma kallikrein, sequence (P03952 391-638): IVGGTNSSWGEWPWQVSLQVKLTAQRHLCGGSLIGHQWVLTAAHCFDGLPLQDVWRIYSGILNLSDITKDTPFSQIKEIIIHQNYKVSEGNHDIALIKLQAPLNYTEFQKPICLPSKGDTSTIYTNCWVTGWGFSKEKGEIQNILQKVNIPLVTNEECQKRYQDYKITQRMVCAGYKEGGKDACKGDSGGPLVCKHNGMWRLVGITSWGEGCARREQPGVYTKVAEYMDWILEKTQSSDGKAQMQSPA
# human plasma kallikrein, sequence (P03952 20-390 partner): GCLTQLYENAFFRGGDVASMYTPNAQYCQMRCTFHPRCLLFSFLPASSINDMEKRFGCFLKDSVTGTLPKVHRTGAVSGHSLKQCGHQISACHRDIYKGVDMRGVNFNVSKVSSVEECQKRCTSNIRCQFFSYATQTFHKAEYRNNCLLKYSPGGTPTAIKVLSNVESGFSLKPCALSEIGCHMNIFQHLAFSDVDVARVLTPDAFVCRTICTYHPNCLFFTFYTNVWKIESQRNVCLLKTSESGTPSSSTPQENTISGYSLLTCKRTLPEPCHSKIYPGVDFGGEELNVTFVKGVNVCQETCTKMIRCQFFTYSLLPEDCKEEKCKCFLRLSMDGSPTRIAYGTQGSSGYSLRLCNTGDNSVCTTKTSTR
row,SMILES,Ki [nM]
1,"N#Cc1cccc(C(N)(CCC2CC2)c2ccc(F)c(NC(=O)[C@H]3C[C@@H](O)CN3C(=O)Nc3ccccc3)c2)c1 (stereo partly drawn) [Compound 21d, (2R,4R)-N2-(5-((+)-1-amino-1-(3-cyanophenyl)-3-cyclopropylpropyl)-2-fluorophenyl)-4-hydroxy-N1-phenylpyrrolidine-1,2-dicarboxamide]",> 100
2,CO[C@@H]1C[C@H](C(=O)Nc2cc(C(CCC3CC3)(N[S@+]([O-])C(C)(C)C)c3cccc(C#N)c3)ccc2F)N(C(=O)Nc2ccc(Cl)cn2)C1 (stereo partly drawn) [Compound 18a],< 50
3,"CC(C)(C)[S@@+]([O-])NC(CCC1CC1)(c1cccc(C#N)c1)c1ccc(F)c(NC(=O)[C@@H]2CCCN2C(=O)Nc2ccc(Cl)cc2)c1 (stereo partly drawn) [Compound 8b, (S)-N1-(4-chlorophenyl)-N2-(5-((−)-1-(3-cyanophenyl)-3-cyclopropyl-1-((R)-1,1-dimethylethylsulfinamido)propyl)-2-fluorophenyl)pyrrolidine-1,2-dicarboxamide]",> 100
4,"CC(C)(C)[S@@+]([O-])NC(CCC1CC1)(c1cccc(C#N)c1)c1ccc(F)c(NC(=O)[C@H]2CCCN2C(=O)Nc2ccc(Cl)cc2)c1 (stereo partly drawn) [Compound 7b, (R)-N1-(4-chlorophenyl)-N2-(5-((+)-1-(3-cyanophenyl)-3-cyclopropyl-1-((R)-1,1-dimethylethylsulfinamido)propyl)-2-fluorophenyl)pyrrolidine-1,2-dicarboxamide]",> 100
5,"N#Cc1cccc(C(N)(CCC2CC2)c2ccc(F)c(NC(=O)[C@@H]3C[C@@H](O)CN3C(=O)Nc3ccc(Cl)cc3)c2)c1 (stereo partly drawn) [Compound 5e, (2S,4R)-N2-(5-((−)-1-amino-1-(3-cyanophenyl)-3-cyclopropylpropyl)-2-fluorophenyl)-N1-(4-chlorophenyl)-4-hydroxypyrrolidine-1,2-dicarboxamide]",> 100
6,"C[C@H]1C[C@H](C(=O)Nc2cc(C(N)(CCC3CC3)c3ccncc3)ccc2F)N(C(=O)Nc2ccc(Cl)cn2)C1 (stereo partly drawn) [Compound 48d, (2R,4S)-N2-(5-((+)-1-amino-3-cyclopropyl-1-(pyridin-4-yl)propyl)-2-fluorophenyl)-N1-(5-chloropyridin-2-yl)-4-methylpyrrolidine-1,2-dicarboxamide]",< 50
7,"NC(CCC1CC1)(c1ccncc1)c1ccc(F)c(NC(=O)[C@H]2C[C@@H](O)CN2C(=O)Nc2ccc(Cl)cc2)c1 (stereo partly drawn) [Compound 69a, (2R,4R)-N2-(5-((+)-1-amino-3-cyclopropyl-1-(pyridin-4-yl)propyl)-2-fluorophenyl)-N1-(4-chlorophenyl)-4-hydroxypyrrolidine-1,2-dicarboxamide]",< 50
8,"CC(C)(C)[S@@+]([O-])NC(CCC1CC1)(c1ccncc1)c1ccc(F)c(NC(=O)[C@H]2C[C@@H](O)CN2C(=O)Nc2ccc(Cl)cc2)c1 (stereo partly drawn) [Compound 68a, (2R,4R)-N1-(4-chlorophenyl)-N2-(5-(3-cyclopropyl-1-((R)-1,1-dimethylethylsulfinamido)-1-(pyridin-4-yl)propyl)-2-fluorophenyl)-4-hydroxypyrrolidine-1,2-dicarboxamide]",< 50
9,"CO[C@@H]1C[C@H](C(=O)Nc2cc(C(N)(CCC3CC3)c3ccccn3)ccc2F)N(C(=O)Nc2ccc(Cl)cn2)C1 (stereo partly drawn) [Compound 37d, (2R,4R)-N2-(5-((+)-1-amino-3-cyclopropyl-1-(pyridin-2-yl)propyl)-2-fluorophenyl)-N1-(5-chloropyridin-2-yl)-4-methoxypyrrolidine-1,2-dicarboxamide]",< 50
10,"CO[C@@H]1C[C@H](C(=O)Nc2cc([C@](CCC3CC3)(N[S@+]([O-])C(C)(C)C)c3ccncc3)ccc2F)N(S(=O)(=O)c2ccc3cc(Cl)ccc3c2)C1 [Compound 87b, (2R,4R)-1-(6-chloronaphthalen-2-ylsulfonyl)-N-(5-((S)-3-cyclopropyl-1-((R)-1,1-dimethylethylsulfinamido)-1-(pyridin-4-yl)propyl)-2-fluorophenyl)-4-methoxypyrrolidine-2-carboxamide]",> 100
11,"N#Cc1cccc([C@@H](NCC2CC2)c2ccc(F)c(NC(=O)[C@H]3C[C@@H](O)CN3C(=O)Nc3ccc(Cl)cc3)c2)c1 [Compound 60a, (2R,4R)-N1-(4-chlorophenyl)-N2-(5-((R)-(3-cyanophenyl)(cyclopropylmethylamino)methyl)-2-fluorophenyl)-4-hydroxypyrrolidine-1,2-dicarboxamide]",> 100
12,"CCO[C@@H]1C[C@H](C(=O)Nc2cc(C(NCC3CC3)c3cccc(C#N)c3)ccc2F)N(C(=O)Nc2ccc(Cl)cn2)C1 (stereo partly drawn) [Compound 58j, (2R,4R)-N1-(5-chloropyridin-2-yl)-N2-(5-((+)-(3-cyanophenyl)(cyclopropylmethylamino)methyl)-2-fluorophenyl)-4-ethoxypyrrolidine-1,2-dicarboxamide]",< 50
13,"NC(CCC1CC1)(c1ccncc1)c1ccc(F)c(NC(=O)[C@H]2C[C@](O)(C3CC3)CN2C(=O)Nc2ccc(Cl)cn2)c1 (stereo partly drawn) [Compound 59d, (2R,4S)-N2-(5-((+)-1-amino-3-cyclopropyl-1-(pyridin-4-yl)propyl)-2-fluorophenyl)-N1-(5-chloropyridin-2-yl)-4-cyclopropyl-4-hydroxypyrrolidine-1,2-dicarboxamide]",< 50
14,"CO[C@@H]1C[C@H](C(=O)Nc2cc(C(N)(CCC3CC3)c3cccc(C#N)c3)ccc2F)N(C(=O)Nc2ccc(Cl)cn2)C1 (stereo partly drawn) [Compound 18b, (2R,4R)-N2-(5-((+)-1-amino-1-(3-cyanophenyl)-3-cyclopropylpropyl)-2-fluorophenyl)-N1-(5-chloropyridin-2-yl)-4-methoxypyrrolidine-1,2-dicarboxamide]",< 50
15,"N#Cc1cccc(C(N)(CCC2CC2)c2ccc(F)c(NC(=O)[C@H]3C[C@@H](O)CN3C(=O)Nc3ccc(Br)cc3)c2)c1 (stereo partly drawn) [Compound 23b, (2R,4R)-N2-(5-((+)-1-amino-1-(3-cyanophenyl)-3-cyclopropylpropyl)-2-fluorophenyl)-N1-(4-bromophenyl)-4-hydroxypyrrolidine-1,2-dicarboxamide]",50 to 100
16,"NC(CCC1CC1)(c1ccncc1)c1ccc(F)c(NC(=O)[C@H]2C[C@](O)(C(F)(F)F)CN2C(=O)Nc2ccc(Cl)cn2)c1 (stereo partly drawn) [Compound 54g, (2R,4R)-N2-(5-(1-amino-3-cyclopropyl-1-(pyridin-4-yl)propyl)-2-fluorophenyl)-N1-(5-chloropyridin-2-yl)-4-hydroxy-4-(trifluoromethyl)pyrrolidine-1,2-dicarboxamide]",< 50
17,"NC(CCC1CC1)(c1ccc(F)c(NC(=O)[C@H]2C[C@](O)(c3ccccc3)CN2C(=O)Nc2ccc(Cl)cn2)c1)c1ccccn1 (stereo partly drawn) [Compound 32a, (2R,4S)-N2-(5-((+)-1-amino-3-cyclopropyl-1-(pyridin-2-yl)propyl)-2-fluorophenyl)-N1-(5-chloropyridin-2-yl)-4-hydroxy-4-phenylpyrrolidine-1,2-dicarboxamide]",< 50
18,"CO[C@@H]1C[C@H](C(=O)Nc2cc(C(N)(CCC3CC3)c3ccncc3)ccc2F)N(C(=O)c2ccc3cc[nH]c3c2)C1 (stereo partly drawn) [Compound 82a, (2R,4R)-N-(5-(-(+)-1-amino-3-cyclopropyl-1-(pyridin-4-yl)propyl)-2-fluorophenyl)-1-(1H-indole-6-carbonyl)-4-methoxypyrrolidine-2-carboxamide]",> 100
19,"CC(C)(C)[S@@+]([O-])NC(CCC1CC1)(c1cccc(C#N)c1)c1ccc(F)c(NC(=O)[C@H]2C[C@H](O)CN2C(=O)Nc2ccc(Cl)cc2)c1 (stereo partly drawn) [Compound 9b, (2R,4S)-N1-(4-chlorophenyl)-N2-(5-((+)-1-(3-cyanophenyl)-3-cyclopropyl-1-((R)-1,1-dimethylethylsulfinamido)propyl)-2-fluorophenyl)-4-hydroxypyrrolidine-1,2-dicarboxamide]",> 100
20,"N#Cc1cccc(C(N)(CCC2CC2)c2ccc(F)c(NC(=O)[C@H]3C[C@@H](O)CN3C(=O)Nc3ccc(F)cc3)c2)c1 (stereo partly drawn) [Compound 24b, (2R,4R)-N2-(5-((+)-1-amino-1-(3-cyanophenyl)-3-cyclopropylpropyl)-2-fluorophenyl)-N1-(4-fluorophenyl)-4-hydroxypyrrolidine-1,2-dicarboxamide]",> 100
21,"CO[C@@H]1C[C@H](C(=O)Nc2cc(C(N)(CCC3CC3)c3cccc(C#N)c3)ccc2F)N(C(=O)Nc2ccc(C#N)cc2)C1 (stereo partly drawn) [Compound 15f, (2R,4R)-N2-(5-((+)-1-amino-1-(3-cyanophenyl)-3-cyclopropylpropyl)-2-fluorophenyl)-N1-(4-cyanophenyl)-4-methoxypyrrolidine-1,2-dicarboxamide]",> 100
22,"N#Cc1cccc(C(N)(CCC2CC2)c2ccc(F)c(NC(=O)[C@H]3CCCN3C(=O)Nc3ccc(Cl)cc3)c2)c1 (stereo partly drawn) [Compound 7c, (R)-N2-(5-((+)-1-amino-1-(3-cyanophenyl)-3-cyclopropylpropyl)-2-fluorophenyl)-N1-(4-chlorophenyl)pyrrolidine-1,2-dicarboxamide]",> 100
23,"N#Cc1cccc(C(N)(CCC2CC2)c2ccc(F)c(NC(=O)[C@H]3C[C@@H](O)CN3C(=O)Nc3ccc(N)cc3)c2)c1 (stereo partly drawn) [Compound 28b, (2R,4R)-N2-(5-((+)-1-amino-1-(3-cyanophenyl)-3-cyclopropylpropyl)-2-fluorophenyl)-N1-(4-aminophenyl)-4-hydroxypyrrolidine-1,2-dicarboxamide]",> 100
24,"CCNC(CCC1CC1)(c1ccnc(C)c1)c1ccc(F)c(NC(=O)[C@H]2C[C@@H](OC)CN2C(=O)Nc2ccc(Cl)cn2)c1 (stereo partly drawn) [Compound 78a, (2R,4R)-N1-(5-chloropyridin-2-yl)-N2-(5-((+)-3-cyclopropyl-1-(ethylamino)-1-(2-methylpyridin-4-yl)propyl)-2-fluorophenyl)-4-methoxypyrrolidine-1,2-dicarboxamide]",< 50
